“And” between values parts separate entries of the source, which are not always exact repeats. Identical values can stand only once. Like-named read-outs stand apart in the source and are kept apart here.
Key:
[1] = tested on: TPSO; settings: cited from earlier work
[2] = target: T1, TSPO (Rattus norvegicus, UniProt P16257); set-up: from tissue; method as in PMID 17680643; settings: same animal model; cited from earlier work
[3] = tested on: TPSO; settings: cited from earlier work; remark: listed apart in the source
[4] = Metabolite studies (radio-TLC of tissue and plasma extracts); type: in vivo, SD rats; settings: rats
Protocol: Groups of male SD rats were injected with [^123I]-CLINME (7.4 MBq in 0.1 mL of 0.9% saline) and sacrificed at 15, 60, and 180 min p.i. Adrenals, kidney, heart, and brain were quickly excised.
Tissue fractions (200 mg) were treated with acetonitrile (2 mL) and homogenised, and the mixture was centrifuged at 2,000 rpm. The supernatant was removed and the pellet was treated for a second time, as above and the combined supernatants concentrated to 50 μL. Plasma (0.2 mL) separated from blood was extracted with acetonitrile and concentrated. The concentrated extracts were applied onto silica gel C18 plates with a preconcentration zone (Merck, Darmstadt, Germany) and developed with ethyl acetate. The radioactivity distribution was measured using a static radiochromatogram analyser (Berthold Co.).

[5] = target: T1, TSPO; experiment: SPECT imaging of unilateral excitotoxic (AMPA) striatum lesion; type: in vivo, SD rats; set-up: from tissue; host or cells: male Sprague-Dawley rats: peripheral organs and brain in vivo; AMPA-lesioned striatum; brain sections; settings: AMPA lesion rat model
Protocol: Lesioning was performed by stereotaxically injecting 7.5 nmol α-amino-3-hydroxy-5-methylisoxazole-4-propionic acid (AMPA) unilaterally into the striatum. Male SD rats (317 ± 56 g) were anaesthetised with inhaled isoflurane in O2 (5% induction, ~2% maintenance thereafter) and positioned in a stereotaxic frame (Stoelting Co., USA). A 1.5 cm incision was made in the scalp to reveal the skull surface and a burr hole was drilled over the injection site. […] Following the injection, the needle was left in situ for a further 5 min to allow the fluid to disperse. After the needle was withdrawn, the incision was sutured and cleansed. Animals were given a week to recover prior to imaging. Analgesia was provided by subcutaneous administration of 0.05 mg/Kg buprenorphine.
Two hours prior to [^123I]-CLINME administration, thyroid blocking was performed with an intraperitoneal injection of 2 mg/Kg potassium iodide. [^123I]-CLINME (74–148 MBq in 0.1 mL of 0.9% saline, S.A. > 80 GBq/μmol) was injected via the tail vein. […]
SPECT volumes were reconstructed with an Ordered Subset Expectation Maximisation iterative reconstruction algorithm using 3 iterations and 8 subsets. […] At each of the time points p.i., the ratio of the mean activity in the lesion VOI compared to the contralateral control VOI was determined. […]

[6] = In vivo biodistribution of [^123I]-CLINME; set-up: species or system Sprague-Dawley (SD) rats; settings: for Biodistribution, Adrenals / Biodistribution, Blood / Biodistribution, Heart / Biodistribution, Kidney / Biodistribution, Liver / Biodistribution, Lungs / Biodistribution, Olfactory bulbs / Biodistribution, Spleen / Biodistribution, Thyroid / Biodistribution, Brain: SD male rats, i.v.; for Biodistribution, Brain: remainder of the brain
Protocol: No carrier added [^123I]-CLINME (0.7 MBq, 10 pmoles) dissolved in 0.9% saline (0.1 mL) was administered to 8–10-week-old male Sprague-Dawley (SD) rats (n = 4–6) via tail vein injection in a volume of 0.1 mL. At 5, 15, and 30 min and 1, 3, and 6 h after injection (p.i.) of the [^123I]-CLINME, the rats were sacrificed by CO2 administration followed by cervical fracture. […] Samples of organs and tissues were weighed and the radioactivity was measured using an automated γ-counter. The percent of injected dose (%ID) was calculated by comparison to a diluted standard solution derived from the initial injected sample. Radioactivity concentrations were expressed as percent of injected dose per gram of wet tissue (% ID/g).

[7] = target: T1, TSPO; experiment: In vitro autoradiography with [^125I]-CLINME on lesioned brain tissue; type: binding, SD rats; set-up: from tissue; host or cells: male Sprague-Dawley rats: peripheral organs and brain in vivo; AMPA-lesioned striatum; brain sections; settings: autoradiography, 16 nM [^125I]-CLINME
[8] = target: T1, TSPO; settings: competing drug 1 mg/Kg i.v. 5 min prior to tracer, rats, 30 min p.i.
Protocol: The saturation effect of [^123I]-CLINME uptake was studied in competition experiments by injecting CLINME (1 mg/Kg), 5 min prior to [^123I]-CLINME (0.7 MBq, 10 pmoles in 0.1 mL of 0.9% saline), via the tail vein, to 8–10-week-old male SD rats.
The drugs were dissolved in dimethyl sulfoxide/saline (1 : 5) and injected intravenously 5 min prior to [^123I]-CLINME. Groups of rats (n = 3-4) were sacrificed by CO2 administration followed by cervical fracture 30 min after administration of [^123I]-CLINME and peripheral organs (liver, spleen, lung, heart, kidney, and adrenals), blood, olfactory bulbs, and the remainder of the brain were removed. The radioactivity concentrations were calculated as described previously. Results were analysed by one-way analysis of variance (ANOVA) followed by Tukey's post hoc test for comparing the tissue radioactivity concentrations in the treated animals (n = 3-4) and in the controls (n = 6). The criterion for significance was P < 0.05.

CCN(CC)C(=O)Cc1c(-c2ccc(I)cc2)nc2ccc(Cl)cn12 [CLINDE]
selectivity for the TPSO over the CBR [1]: 200 fold

CCN([11CH3])C(=O)Cc1c(-c2ccc(I)cc2)nc2ccc(Cl)cn12 [[^11C]-CLINME]
ratio lesion versus contralateral striatum, PET [2]: 2.14 ± 0.09

CCC(C)N([11CH3])C(=O)c1cc2ccccc2c(-c2ccccc2Cl)n1 (stereo not drawn) [[^11C]-PK11195]
ratio lesion versus contralateral striatum, PET [2]: 1.62 ± 0.05

COc1ccc(OCC[18F])c(CN(C(C)=O)c2cc(F)ccc2Oc2ccccc2)c1 [[^18F]FE-DAA1106]
ratio of uptake olfactory bulbs versus rest of brain [3]: 3.5

CCN(CC)C(=O)Cc1c(-c2ccc([123I])cc2)nc2ccc(Cl)cn12 [[^123I]-CLINDE]
ratio of uptake olfactory bulbs versus rest of brain ([3]; at 8 h): 6

CCN(C)C(=O)Cc1c(-c2ccc([123I])cc2)nc2ccc(Cl)cn12 [[^123I]-CLINME]
unchanged radiotracer in brain tissue [4]: more than 95% | unchanged tracer in extracted activity, plasma ([4]; 15 min p.i.): 15% | unchanged tracer in extracted activity, plasma ([4]; 1 h p.i.): 5% | unchanged tracer in extracted activity, plasma ([4]; 3 h p.i.): 2% | unchanged [^123I]-CLINME in extractable radioactivity, adrenals, kidney, and heart ([4]; constant over the three hours studied): more than 95% | mean ratio ± SD (ipsilateral : contralateral) striatum uptake, SPECT ([5]; 60 min p.i.): 2.2 and 2.18 ± 0.89 | mean ratio ± SD (ipsilateral : contralateral) striatum uptake, SPECT ([5]; 120 min p.i.): 1.86 ± 0.51 | Biodistribution, Adrenals ([6]; 5 min p.i.): 2.89 ± 0.48 %ID/g | Biodistribution, Blood ([6]; 5 min p.i.): 0.18 ± 0.02 %ID/g | Biodistribution, Heart ([6]; 5 min p.i.): 3.28 ± 0.30 %ID/g | Biodistribution, Kidney ([6]; 5 min p.i.): 1.82 ± 0.20 %ID/g | Biodistribution, Liver ([6]; 5 min p.i.): 0.70 ± 0.10 %ID/g | Biodistribution, Lungs ([6]; 5 min p.i.): 7.88 ± 0.62 %ID/g | Biodistribution, Olfactory bulbs ([6]; 5 min p.i.): 0.38 ± 0.03 %ID/g | Biodistribution, Spleen ([6]; 5 min p.i.): 2.00 ± 0.55 %ID/g | Biodistribution, Thyroid ([6]; 5 min p.i.): 4.62 ± 2.17 %ID/g | Biodistribution, Brain ([6]; 5 min p.i.): 0.20 ± 0.02 %ID/g | Biodistribution, Adrenals ([6]; 15 min p.i.): 4.71 ± 0.26 %ID/g | Biodistribution, Blood ([6]; 15 min p.i.): 0.09 ± 0.01 %ID/g | Biodistribution, Heart ([6]; 15 min p.i.): 3.53 ± 0.23 %ID/g | Biodistribution, Kidney ([6]; 15 min p.i.): 1.75 ± 0.07 %ID/g | Biodistribution, Liver ([6]; 15 min p.i.): 0.68 ± 0.07 %ID/g | Biodistribution, Lungs ([6]; 15 min p.i.): 3.53 ± 0.44 %ID/g | Biodistribution, Olfactory bulbs ([6]; 15 min p.i.): 0.28 ± 0.04 %ID/g | Biodistribution, Spleen ([6]; 15 min p.i.): 2.65 ± 0.40 %ID/g | Biodistribution, Thyroid ([6]; 15 min p.i.): 5.62 ± 1.24 %ID/g | Biodistribution, Brain ([6]; 15 min p.i.): 0.10 ± 0.01 %ID/g | Biodistribution, Adrenals ([6]; 30 min p.i.): 7.55 ± 1.38 %ID/g | Biodistribution, Blood ([6]; 30 min p.i.): 0.08 ± 0.01 %ID/g | Biodistribution, Heart ([6]; 30 min p.i.): 3.32 ± 0.31 %ID/g | Biodistribution, Kidney ([6]; 30 min p.i.): 1.78 ± 0.18 %ID/g | Biodistribution, Liver ([6]; 30 min p.i.): 0.51 ± 0.07 %ID/g | Biodistribution, Lungs ([6]; 30 min p.i.): 2.45 ± 0.30 %ID/g | Biodistribution, Olfactory bulbs ([6]; 30 min p.i.): 0.34 ± 0.01 %ID/g | Biodistribution, Spleen ([6]; 30 min p.i.): 2.21 ± 0.15 %ID/g | Biodistribution, Thyroid ([6]; 30 min p.i.): 7.37 ± 2.14 %ID/g | Biodistribution, Brain ([6]; 30 min p.i.): 0.08 ± 0.00 %ID/g | Biodistribution, Adrenals ([6]; 1 hour p.i.): 6.77 ± 0.54 %ID/g | Biodistribution, Blood ([6]; 1 hour p.i.): 0.06 ± 0.00 %ID/g | Biodistribution, Kidney ([6]; 1 hour p.i.): 1.16 ± 0.18 %ID/g | Biodistribution, Liver ([6]; 1 hour p.i.): 0.42 ± 0.07 %ID/g | Biodistribution, Lungs ([6]; 1 hour p.i.): 1.68 ± 0.10 %ID/g | Biodistribution, Olfactory bulbs ([6]; 1 hour p.i.): 0.26 ± 0.05 %ID/g | Biodistribution, Spleen ([6]; 1 hour p.i.): 1.76 ± 0.12 %ID/g | Biodistribution, Thyroid ([6]; 1 hour p.i.): 6.46 ± 2.26 %ID/g | Biodistribution, Brain ([6]; 1 hour p.i.): 0.06 ± 0.01 %ID/g | Biodistribution, Adrenals ([6]; 3 hours p.i.): 6.65 ± 0.56 %ID/g | Biodistribution, Blood ([6]; 3 hours p.i.): 0.04 ± 0.00 %ID/g | Biodistribution, Heart ([6]; 3 hours p.i.): 1.28 ± 0.13 %ID/g | Biodistribution, Kidney ([6]; 3 hours p.i.): 0.70 ± 0.05 %ID/g | Biodistribution, Liver ([6]; 3 hours p.i.): 0.23 ± 0.01 %ID/g | Biodistribution, Lungs ([6]; 3 hours p.i.): 0.95 ± 0.12 %ID/g | Biodistribution, Olfactory bulbs ([6]; 3 hours p.i.): 0.25 ± 0.01 %ID/g | Biodistribution, Spleen ([6]; 3 hours p.i.): 1.02 ± 0.14 %ID/g | Biodistribution, Thyroid ([6]; 3 hours p.i.): 3.41 ± 1.10 %ID/g | Biodistribution, Brain ([6]; 3 hours p.i.): 0.03 ± 0.00 %ID/g | Biodistribution, Adrenals ([6]; 6 hours p.i.): 8.34 ± 0.71 %ID/g | Biodistribution, Blood ([6]; 6 hours p.i.): 0.03 ± 0.00 %ID/g | Biodistribution, Heart ([6]; 6 hours p.i.): 0.72 ± 0.14 %ID/g | Biodistribution, Kidney ([6]; 6 hours p.i.): 0.51 ± 0.09 %ID/g | Biodistribution, Liver ([6]; 6 hours p.i.): 0.21 ± 0.05 %ID/g | Biodistribution, Lungs ([6]; 6 hours p.i.): 0.68 ± 0.08 %ID/g | Biodistribution, Olfactory bulbs ([6]; 6 hours p.i.): 0.17 ± 0.05 %ID/g | Biodistribution, Spleen ([6]; 6 hours p.i.): 0.67 ± 0.09 %ID/g | Biodistribution, Thyroid ([6]; 6 hours p.i.): 4.11 ± 1.15 %ID/g | Biodistribution, Brain ([6]; 6 hours p.i.): 0.02 ± 0.00 %ID/g | ratio of uptake olfactory bulbs to blood ([6]; rats): 6 | plateau of activity in the adrenals ([6]; rats, after 30 min to 6 h p.i.): ≈ 7.5 % ID/g | peak activity in heart ([6]; rats, at 5 or 15 min p.i.): 3.5 % ID/g | peak activity in kidney ([6]; rats, at 5 or 15 min p.i.): 1.8 % ID/g | peak activity in liver ([6]; rats, at 5 or 15 min p.i.): 0.7 % ID/g | peak activity in lung ([6]; rats, at 5 or 15 min p.i.): 7.9 % ID/g | peak activity in spleen ([6]; rats, at 5 or 15 min p.i.): 2.7 % ID/g | ratio of uptake olfactory bulbs versus remainder of the brain ([6]; rats, at 5 min): 2 | uptake in the thyroid ([6]; rats, at 3 h, constant till 6 h): 4% | activity in liver, spleen, kidney, heart, and lung ([6]; rats, at 6 h): less than 0.7 % ID/g | ratio of uptake olfactory bulbs versus remainder of the brain ([6]; rats, at 6 h): 8 | uptake in the thyroid ([6]; rats, increase from 5 min to 1 h): 4–7% | concentration in blood ([6]; rats, throughout the time of measurement): < 0.18 % ID/g

CCN(C)C(=O)Cc1c(-c2ccc([125I])cc2)nc2ccc(Cl)cn12 [[^125I]-CLINME]
radioligand binding in the lesioned striatum compared to the contralateral one [7]: significantly increased

CCCN(CCC)C(=O)Cc1c(-c2ccc(Cl)cc2)nc2ccc(Cl)cn12 [alpidem]
selectivity for the TPSO over the CBR [1]: 20 fold

Ro 5-4864
reduction of uptake of [^123I]-CLINME in the blood [8]: not significant | decrease of [^123I]-CLINME uptake in the heart ([8]; vs controls): 77% | decrease of [^123I]-CLINME uptake in the kidney ([8]; vs controls): 68% | decrease of [^123I]-CLINME uptake in the lungs ([8]; vs controls): 62% | decrease of [^123I]-CLINME uptake in the olfactory bulbs ([8]; vs controls): nonsignificant reduction | decrease of [^123I]-CLINME uptake in the remainder of the brain ([8]; vs controls): 23% | increase of [^123I]-CLINME concentration in the adrenals ([8]; vs controls): 73%

— publication PMC4496498, “Radiosynthesis, In Vivo Biological Evaluation, and Imaging of Brain Lesions with [^123I]-CLINME, a New SPECT Tracer for the Translocator Protein” (Disease Markers, 2015)
